The subject of assay [1] is β3-adrenergic receptor (Adrb3) expression. The experiment in a line: Adrb3 gene expression (qRT-PCR) in primary brown adipocytes. It is filed as cell-based, mouse. Particulars: 5 μM Dexa, 0–4 h, n = 4. How it is done:
(§1) Total RNA was isolated using Trisure (Bioline) and purified with SV total RNA Isolation System (Promega). Reverse transcriptase reactions were performed using SensiFAST cDNA Synthesis Kit (Bioline). Quantitative real-time PCR (qRT-PCR) was performed with SYBR green fluorescent dye in 384-well format using LightCycler 480 (Roche). General Transcription Factor IIB (Gtf2b) served as an internal control. To be able to calculate relative gene expression levels of samples, standard reactions containing serial diluted pooled cDNA of all samples (Pure, 1:2, 1:4, 1:8, 1:16, 1:32 and 1:64) as a template were used to establish a standard curve. The RNA abundance of Ucp1 gene was normalized to the housekeeping gene Gtf2b. The following primers were used: […]
In general terms: Real-time PCR tracks product formation cycle by cycle.

In assay [2] the test system is cytosolic cAMP in primary brown adipocytes. Description: Quantification of cellular cAMP (cAMP-Glo Assay). It is filed as cell-based, mouse. How it is done:
Changes in cytosolic cAMP concentrations were determined in primary brown adipocytes in response to ACTH- or isoproterenol stimulation using cAMP-Glo Assay (Promega) following the manufacturer’s instructions.

Assay [3] deals with melanocortin 2 receptor (Mc2r) expression. The experiment in a line: Mc2r gene expression (qRT-PCR) in primary brown adipocytes. It is filed as cell-based, mouse. Particulars: 5 μM Dexa, 0–4 h, n = 4. The procedure: as §1
For assay [4], the system named is primary brown adipocytes. Description: Microplate-based respirometry (XF96), UCP1-mediated uncoupled respiration. Particulars: for Stimulated respiration (UCP1-dependent uncoupled respiration) as fold increase of basal leak respiration, GsPCR ligand screen: primary brown adipocytes (129S6 mice), acute addition after oligomycin 5 μM, medium with 1–2% fatty acid free BSA, 37°C, n = 5, Figures 1B,C; for Stimulated respiration (fold increase of basal leak), ACTH heptapeptide fragments: fragments 1 μM, n = 4, Figures 4A,B,D,E. It is filed as cell-based, mouse. The procedure:
Oxygen consumption of primary brown adipocytes was measured at 37°C using microplate-based respirometry (XF96 extracellular flux analyzer, Seahorse Bioscience) as described previously ([Li et al., 2014b]) following the subsequent protocol at day 7 of differentiation. Prior to the respiration measurement, primary cells were washed with warmed, unbuffered assay medium (DMEM basal medium supplemented with 25 mM glucose, 31 mM NaCl, 2 mM GlutaMax and 15 mg/l phenol red, pH 7.4) (basal assay medium). Subsequent to the medium replacement with basal assay medium containing 1–2% essentially fatty acid free bovine serum albumin (BSA), cells were incubated at 37°C in a CO2-free incubator for 1 h. Assay reagents were loaded into the drug injections ports of the sensor cartridges at 10X in basal assay medium (no BSA). After assessment of basal oxygen consumption in untreated cells oligomycin (5 μM) was injected to inhibit coupled respiration and to determine basal leak respiration. Next, effector was added to investigate UCP1-dependant uncoupled respiration. By the addition of FCCP (1 μM) maximal respiratory capacity was determined. Lastly, non-mitochondrial oxygen consumption was assessed by blocking mitochondrial respiration with antimycin A (5 μM). For some experiments, cells were pretreated for 1 h with 50 μM H89 (PKA inhibitor), 1–100 μM propranolol (β-adrenergic receptor antagonist), 40 μM Atglistatin (ATGL inhibitor) and 40 μM Hi76-0079 (HSL inhibitor) 1 h prior to the measurement. Oxygen consumption rates were automatically calculated by the Seahorse XF-96 software. Each experiment was repeated at least three times with similar results and five to eight replicate wells for every condition in each independent experiment. Results are predominately expressed as stimulated respiration which is calculated as fold increase of basal leak.
In our first screen, we tested whether these GsPCR ligands can activate oxygen consumption acutely in brown adipocytes. UCP1-mediated uncoupled respiration was quantified in cultured adherent intact primary brown adipocytes, according to a protocol established in our lab ([Li et al., 2014b]). After recording basal respiration and the fraction of coupled and uncoupled respiration, UCP1-dependent respiration was measured. Finally, maximal respiratory capacity and non-mitochondrial oxygen consumption were assessed by adding the uncoupling agent carbonyl cyanide 4-(trifluoromethoxy) phenylhydrazone (FCCP) and antimycin A was added to block the electron transport chain, respectively. All respiration assays were performed in the presence of BSA to buffer free fatty acid (FFA) levels in the respiration medium.

Assay [5] concerns Ucp1 mRNA in primary brown adipocytes. The experiment in a line: Ucp1 gene expression analysis (qRT-PCR), brown adipocytes. Particulars: for Ucp1 mRNA expression, ACTH heptapeptide fragments: normalized to Gtf2b, n = 4, Figures 4C,F. It is filed as cell-based, mouse. How it is done: as §1
Assay [6] deals with Ucp1 gene expression in primary brown adipocytes of Ucp1^ki/ki mice. The experiment in a line: Luciferase assay, FLUC activity as surrogate for Ucp1 expression. Particulars: overnight stimulation, normalized to total protein content, n = 3, Figure 1D. The class given is cell-based, mouse. The procedure:
After overnight stimulation of primary brown adipocytes of Ucp1^ki/ki mice luciferase activity was assayed using a commercial kit system (Luciferase Assay System Freezer Pack E4030, Promega GmbH). Primary cells were lysed in 1x reporter lysis buffer by shaking for 20 min at room temperature. 10 μl lysate was mixed with 50 μl luciferase assay substrate solution, and the mixture was measured by FB12 in a luminometer (Single Tube Luminometer, Titertek-Berthold GmbH). Bioluminescence readouts were normalized to total protein content.
We then measured FLUC activity in primary brown adipocytes from Ucp1^ki/ki reporter gene mice to determine the effect of the GsPCR ligands on Ucp1 gene expression in response to overnight stimulation. As the expression of Fluc in these cells is driven by Ucp1promoter, FLUC activity served as a surrogate for Ucp1 expression.

For assay [7], the system named is release of FFAs. Particulars: lipolysis as criterion of potency; ref Draper et al., 1973; cited from earlier work. An excerpt:
The heptapeptide sequence, Met-Glu-His-Phe-Arg-Trp-Gly, is common to all the adrenocorticotropic (ACTH), melanotropic (MSH), and lipotropic (LPH) hormones.

The subject of assay [8] is Ucp1 mRNA and UCP1 protein. Further details: method as in Soumano et al., 2000; van den Beukel et al., 2014. Particulars: ref Soumano et al., 2000; van den Beukel et al., 2014; cited from earlier work. From the text:
To address the physiological role of ACTH in brown fat thermogenesis we analyzed the expression of its receptor in BAT of mice in response to cold exposure. […] Basically, ACTH triggers the release of glucocorticoids from the cortex of the adrenal gland. Circulating glucocorticoids exert negative feedback control on the […] ...

Setting [9] is: 5 μM Dexa pretreatment, n = 4, Figure 5G.

Ends that are not written are not given here.

With `C[C@@H]1C[C@H]2[C@@H]3CCC4=CC(=O)C=C[C@]4(C)[C@@]3(F)[C@@H](O)C[C@]2(C)[C@@]1(O)C(=O)CO` [Dexa, dexamethasone], in assay [1], the “Effect of Dexa on expression of the β3-adrenergic receptor” value is reported as “not a consequence of reduced or increased expression”. In assay [2] (setting [9]), the “Effect of Dexa on ACTH induced rise in cellular cAMP” value is recorded as “no such effect was observed for ACTH” and the “Effect of Dexa on ISO induced rise in cellular cAMP” value was “attenuated the ISO induced rise in cellular cAMP levels”. Moreover, the “Effect of Dexa on expression of the melanocortin 2 receptor” value in assay [3] is “not a consequence of reduced or increased expression”. In addition, the “Effect of Dexa pretreatment on ACTH-induced respiration” value in assay [4] (5 μM Dexa, 0–4 h, n = 4, Figure 5C) is “unaffected”. The “Effect of Dexa pretreatment on ISO-stimulated respiration” value in assay [4] (5 μM Dexa, 0–4 h, with increasing exposure time, n = 4, Figure 5C) is given as “attenuated ISO-stimulated respiration”. The “Effect of Dexa on respiration, one-hour pre-treatment or acute stimulation” value in assay [4] (5 μM Dexa, n = 4, Figure 5B) was “had no effect on respiration”. Further, the “Effect of DEXA treatment on thermogenic response, 1 h” value in assay [4] (DEXA treatment for 1 h) is on record as “had no effect”. In addition, in assay [4] (extended DEXA treatment for 4 h, compared with 2 h), the “Effect of DEXA treatment on thermogenic response to ISO, 4 h” value is given as “more pronounced”. Moreover, in assay [4] (two hours of DEXA treatment), the “Effect of DEXA treatment on thermogenic response to ISO, 2 h” value is given as “significant downregulation of the thermogenic response to ISO”. Further, the “Effect of Dexa on Ucp1 expression” value in assay [5] (4-h treatment, 5 μM Dexa, n = 4) is “no significant effect on Ucp1 expression”.

In the case of “PTH: parathyroid hormone, ligand of PTHR”, the “FLUC (luciferase) activity as surrogate for Ucp1 expression” value (“FLUC (luciferase) activity as surrogate” below) in assay [6] is “highest FLUC activities”. Also, the “Stimulated respiration (UCP1-dependent uncoupled respiration) as fold increase of basal leak respiration, GsPCR ligand screen” value in assay [4] is listed as “modest compared to ISO”.

For the compound “MRHFRWG [synACTH(4-10), mutant ACTH fragment, synthetic analog of ACTH(4-10) with amino acid exchange from Glu to Arg]”, in assay [7], the “Activity on the release of FFAs compared to the natural ACTH core sequence” value is listed as “fourfold increased activity on the release of FFAs”. In assay [4], the “Stimulated respiration (fold increase of basal leak), ACTH heptapeptide fragments” value was “mildly increased respiration”. The “Ucp1 mRNA expression, ACTH heptapeptide fragments” value in assay [5] is recorded as “comparable to that of the natural heptapeptide”.

Turning to “adrenomedullin: ligand for calcitonin receptor-like receptor (CALCRL)”, the “FLUC (luciferase) activity as surrogate” value in assay [6] is given as “only had minor effects”.

On to `CC(C)NCC(O)COc1cccc2ccccc12` (stereo not drawn) [propranolol], for which, in assay [4] (1 h pretreatment, 1–100 μM propranolol, ACTH 1 μM, n = 4, Figure 2B), the “Effect of propranolol pre-treatment on ACTH stimulated respiration” value is on record as “did not attenuate ACTH stimulated respiration”. Also, the “Effect of propranolol pre-treatment on ISO stimulated respiration” value in assay [4] (1 h pretreatment, 1–100 μM propranolol, ISO 0.5 μM, n = 4, Figure 2B) is recorded as “blocking the effect of ISO in a dose-dependent manner”.

Take “PACAP: pituitary adenylate cyclase-activating peptide”: in assay [6], the “FLUC (luciferase) activity as surrogate” value is listed as “highest FLUC activities”. For the same compound, in assay [4], the “Stimulated respiration (UCP1-dependent uncoupled respiration) as fold increase of basal leak respiration, GsPCR ligand screen” value is recorded as “weakest effects on cellular respiration”.

Regarding `CCNC(=O)[C@H]1O[C@@H](n2cnc3c(N)nc(NCCc4ccc(CCC(=O)O)cc4)nc32)[C@H](O)[C@@H]1O` [CGS21680], the “FLUC (luciferase) activity as surrogate” value in assay [6] is listed as “no effect on FLUC”.

With “secretin: peptide ligand of the secretin receptor”, in assay [6], the “FLUC (luciferase) activity as surrogate” value is on record as “highest FLUC activities”. For the same compound, the “Stimulated respiration (UCP1-dependent uncoupled respiration) as fold increase of basal leak respiration, GsPCR ligand screen” value in assay [4] was “most prominent induction of UCP1-dependant uncoupled respiration”.

For the compound thyroid hormone, the “FLUC (luciferase) activity as surrogate” value in assay [6] was “no effect on FLUC”.

As to `C[C@]12C[C@H](O)[C@H]3[C@@H](CCC4=CC(=O)CC[C@@]43C)[C@@H]1CC[C@@H]2C(=O)CO` [corticosterone], the “Effect on Ucp1 mRNA and UCP1 protein in response to adrenergic stimulation and ACTH treatment” value in assay [8] was “reduces Ucp1 mRNA and UCP1 protein”.

Regarding “α-MSH: α-melanocyte-stimulating hormone, melanocortin”, the “FLUC (luciferase) activity as surrogate” value in assay [6] is recorded as “moderate rise in FLUC activity”. The “Stimulated respiration (UCP1-dependent uncoupled respiration) as fold increase of basal leak respiration, GsPCR ligand screen” value in assay [4] is given as “weakest effects on cellular respiration”.

In the case of `CC(C)NCC(O)c1ccc(O)c(O)c1` (stereo not drawn) [ISO, isoproterenol], in assay [2] (Mus musculus, Adipocyte, 0.5 h, stimulation for 30 min, n = 3, non-linear regression, Figure 2D), the EC50 was found to be 9.41 nM.

For the compound `O=S(=O)(NCCNC/C=C/c1ccc(Br)cc1)c1cccc2cnccc12` [H89], in assay [4] (H89 50 μM, ACTH 1 μM, n = 4, Figure 2E), the “Effect of PKA inhibitor on ACTH-stimulated respiration” value was “completely blocked the effect on respiration of ACTH”.

Turning to `CCCCC[C@H](O)/C=C/[C@H]1[C@H](O)CC(=O)[C@@H]1C/C=C\CCCC(=O)O` [PGE2, Prostaglandin E2], the “FLUC (luciferase) activity as surrogate” value in assay [6] was “moderate rise in FLUC activity”.

On to “Met-Glu-His-Phe-Arg-Trp-Gly [ACTH(4-10)]”, for which the “Stimulated respiration (fold increase of basal leak), ACTH heptapeptide fragments” value in assay [4] was “no impact on respiration”. Further, the “Ucp1 mRNA expression, ACTH heptapeptide fragments” value in assay [5] is given as “significantly increased Ucp1 mRNA expression”.

In general, EC50 refers to the concentration giving half of the maximal effect. Low values mean greater potency, high ones weaker potency.

These data come from paper PMC6344423, “Opposing Actions of Adrenocorticotropic Hormone and Glucocorticoids on UCP1-Mediated Respiration in Brown Adipocytes” (Frontiers in Physiology, 2019).
